One experiment deals with T1, Human HDAC8 (Homo sapiens, UniProt Q9BY41).
T1 construct: full length with C-terminal His tag, MW=42.6 kDa; His (C); host or cells: baculovirus expression system
T1 sequence (Q9BY41 1-377): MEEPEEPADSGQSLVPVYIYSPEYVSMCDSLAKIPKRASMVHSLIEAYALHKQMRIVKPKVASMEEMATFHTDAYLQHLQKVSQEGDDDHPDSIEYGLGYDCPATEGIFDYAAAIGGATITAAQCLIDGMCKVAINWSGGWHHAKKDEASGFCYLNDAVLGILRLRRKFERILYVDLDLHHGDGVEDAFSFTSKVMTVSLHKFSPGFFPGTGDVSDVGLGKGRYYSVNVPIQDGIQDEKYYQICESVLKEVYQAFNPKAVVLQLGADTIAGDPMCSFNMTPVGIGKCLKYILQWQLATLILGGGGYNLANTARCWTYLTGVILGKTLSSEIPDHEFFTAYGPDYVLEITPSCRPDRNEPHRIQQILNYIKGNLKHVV
Briefly: HDAC8 biochemical assay, AMC-labeled peptide substrate. The settings on record: read-out: HDAC Isoform IC50 (nM) 8. The method, then:
(§1) Activity against all zinc-dependent HDACs 1 to 11 was assessed by using an acetylated AMC-labeled peptide substrate. The substrate RHKK(Ac)AMC was used for HDAC1, HDAC2, HDAC3, HDAC6 and HDAC10; the substrate used for HDAC8 was RHK(Ac)K(Ac)AMC. Activity against the class IIa HDACs (HDAC4, 5, 7, 9) and HDAC11 was determined using a class IIa-specific substrate, BOC-Lys(trifluoroacetyl)-AMC (“Trifluoroacetyl Lysine”; see Lahm et al, 2007, PNAS, 104, 17335-17340). All assays were based on the AMC-labeled substrate and developer combination.
(§2) The protocol involved a two-step reaction: first, the substrate with the acetylated lysine side chain is incubated with a sample containing HDAC activity, to produce the deacetylated products, which are then digested in the second step by the addition of developer to produce the fluorescent signal proportional to the amount of deacetylated substrates.
Human HDAC8 (GenBankAccession No. NM_018486), full length with C-terminal His tag, MW=42.6 kDa, expressed in a baculovirus expression system.
(§3) Assay Buffer: 50 mM Tris-HCl, pH8.0, 137 mM NaCl, 2.7 mM KCl, 1 mM MgC2. Before use, 1 mg/mL BSA and DMSO are added.
HDAC8: 1 ng/ul HDAC8 and 100 µM HDAC8 substrate are in the reaction buffer with 1% DMSO final. Incubate for 2 hours at 30° C.
(§4) Stage 1: Deacetylation of substrate by incubation of HDAC enzymes with compounds
(§5) Stage 2: Development by addition of Developer to digest the deacetylated substrate, and generate the fluorescent colour; Detection: 360/460 Ex/Em

For experiment [1], the target named is T2, Complex of human HDAC3 and human NCOR2 (Homo sapiens, UniProt O15379).
T2 construct: full length with C-terminal His tag, MW=49.7 kDa; His (C); host or cells: baculovirus expression system (co-expressed)
T2 sequence (O15379 whole entry): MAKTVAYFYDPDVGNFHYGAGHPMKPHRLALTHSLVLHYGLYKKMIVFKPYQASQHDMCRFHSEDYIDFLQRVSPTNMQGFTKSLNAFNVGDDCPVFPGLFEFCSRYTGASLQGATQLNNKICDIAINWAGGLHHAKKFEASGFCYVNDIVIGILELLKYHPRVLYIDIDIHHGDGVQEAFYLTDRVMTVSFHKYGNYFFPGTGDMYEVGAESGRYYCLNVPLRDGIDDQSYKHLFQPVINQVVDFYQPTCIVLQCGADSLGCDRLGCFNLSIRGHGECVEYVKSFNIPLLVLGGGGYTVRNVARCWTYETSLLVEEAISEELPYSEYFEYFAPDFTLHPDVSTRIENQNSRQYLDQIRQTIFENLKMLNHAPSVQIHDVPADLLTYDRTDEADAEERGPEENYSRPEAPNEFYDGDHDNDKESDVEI
T2 sequence (Q9Y618 395-489 partner limits assumed): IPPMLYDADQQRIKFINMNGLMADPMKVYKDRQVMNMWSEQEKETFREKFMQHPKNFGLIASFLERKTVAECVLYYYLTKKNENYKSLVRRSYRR
The experiment in a line: HDAC3 biochemical assay, AMC-labeled peptide substrate. The settings on record: read-out: HDAC Isoform IC50 (nM) 3. Here is the method:
as §1, §2
Complex of human HDAC3 (GenBank Accession No. NM_003883), full length with C-terminal His tag, MW=49.7 kDa, and human NCOR2 (amino acid 395-489) (GenBank Accession No. NM_006312), N-terminal GST tag, MW=37.6 kDa, co-expressed in baculovirus expression system.
as §3
HDAC3: 0.1 ng/ul HDAC3 and 50 μM HDAC substrate are in the reaction buffer with 1% DMSO final. Incubate for 1 hour at 30° C.
as §4, §5

In a further experiment the target is T3, Human HDAC7 (Homo sapiens, UniProt Q8WUI4).
T3 construct: (a.a. 518-end) with N-terminal GST tag; GST (N); host or cells: baculovirus expression system
T3 sequence (Q8WUI4 518-952 limits assumed): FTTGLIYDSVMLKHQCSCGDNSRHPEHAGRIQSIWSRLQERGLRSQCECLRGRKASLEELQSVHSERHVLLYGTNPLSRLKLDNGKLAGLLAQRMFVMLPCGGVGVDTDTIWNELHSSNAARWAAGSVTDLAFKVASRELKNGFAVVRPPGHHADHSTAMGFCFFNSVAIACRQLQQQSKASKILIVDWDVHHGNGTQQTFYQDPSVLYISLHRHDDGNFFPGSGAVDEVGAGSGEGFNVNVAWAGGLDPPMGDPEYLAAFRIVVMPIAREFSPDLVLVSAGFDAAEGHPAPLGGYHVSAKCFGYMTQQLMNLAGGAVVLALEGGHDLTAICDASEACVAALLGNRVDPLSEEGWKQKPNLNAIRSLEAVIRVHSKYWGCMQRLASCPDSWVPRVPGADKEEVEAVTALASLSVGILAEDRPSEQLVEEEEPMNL
The experiment in a line: HDAC7 biochemical assay, class IIa-specific substrate. The settings on record: read-out: HDAC Isoform IC50 (nM) 7. The method in brief:
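Two-step fluorogenic readout: class IIa-selective trifluoroacetyl-lysine AMC substrate (50 μM) deacetylated by N-terminal GST-HDAC7 fragment (0.001 ng/ul), then digested by developer, Ex/Em 360/460. Reaction: 30 min, room temperature, Tris-HCl pH 8.0, NaCl/KCl/MgCl2, 1 mg/mL BSA, 1% DMSO.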

A further experiment concerns the target T4, Human HDAC9 (Homo sapiens, UniProt Q9UKV0).
T4 construct: amino acids 604-1066 with C-terminal His tag; His (C); host or cells: baculovirus expression system
The experiment in a line: HDAC9 biochemical assay, class IIa-specific substrate. The settings on record: read-out: HDAC Isoform IC50 (nM) 9. In outline:
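HDAC9 residues 604-1066 (C-terminal His tag, baculovirus-expressed) at 0.06 ng/ul with 50 μM class IIa substrate Boc-Lys(trifluoroacetyl)-AMC in Tris-HCl pH 8.0 buffer with BSA and 1% DMSO. 30 min at room temperature, then developer added; fluorescence read at 360/460 nm Ex/Em.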

Results on 13 compounds are retold here after patent publication US20210038607A1, “OXADIAZOLYLTHIOPHENE DERIVATIVES USEFUL AS HISTONE DEACETYLASE INHIBITORS” (Karus Therapeutics Limited, priority 2018, published 2021).

Broadly, the IC50 is the concentration needed to halve the response being measured.

T4 sequence (Q9UKV0 604-1066 isoform Q9UKV0-5): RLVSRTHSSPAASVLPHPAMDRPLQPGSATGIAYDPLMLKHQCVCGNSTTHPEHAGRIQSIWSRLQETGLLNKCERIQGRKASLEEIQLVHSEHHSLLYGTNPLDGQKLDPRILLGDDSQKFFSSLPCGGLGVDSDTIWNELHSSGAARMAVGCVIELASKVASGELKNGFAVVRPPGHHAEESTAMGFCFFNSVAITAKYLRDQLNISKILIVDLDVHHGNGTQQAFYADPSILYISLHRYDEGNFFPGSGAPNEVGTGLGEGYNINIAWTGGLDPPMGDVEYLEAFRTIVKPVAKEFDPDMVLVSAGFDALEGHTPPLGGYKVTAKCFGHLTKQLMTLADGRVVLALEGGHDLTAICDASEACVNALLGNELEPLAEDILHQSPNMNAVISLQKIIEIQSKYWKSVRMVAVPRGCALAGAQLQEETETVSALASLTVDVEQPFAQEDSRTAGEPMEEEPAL

As for `O=C(O)c1cnnc(N(Cc2ccc(-c3noc(C(F)(F)F)n3)s2)c2cc(C(F)(F)F)cnn2)c1` [Example ES, 6-[({5-[5-(Trifluoromethyl)-1,2,4-oxadiazol-3-yl]thiophen-2-yl}methyl)[5-(trifluoromethyl)pyridazin-3-yl]amino]pyridazine-4-carboxylicacid], the IC50 at Human HDAC8 was not above 10000 nM; in experiment [1], more than 10000 nM; at Human HDAC7 it was not above 10000 nM; on Human HDAC9, more than 10000 nM.
With `O=C(c1ccc(N(Cc2ccc(-c3noc(C(F)(F)F)n3)s2)c2cnccn2)nn1)N1CCC2(COC2)C1` [Example FJ, 6-{2-Oxa-6-azaspiro[3.4]octane-6-carbonyl}-N-(pyrazin-2-yl)-N-({5-[5-(trifluoromethyl)-1,2,4-oxadiazol-3-yl]thiophen-2-yl}methyl)pyridazin-3-amine], the IC50 at Human HDAC8 is not above 10000 nM; in experiment [1] it was not above 10000 nM; on Human HDAC7, not above 500 nM; at Human HDAC9 it was not above 1000 nM.
With `O=C(c1cnnc(N(Cc2ccc(-c3noc(C(F)(F)F)n3)s2)c2cnccn2)c1)N1CC2CCC(C1)O2` [Example GA, 5-{8-Oxa-3-azabicyclo[3.2.1]octane-3-carbonyl}-N-(pyrazin-2-yl)-N-({5-[5-(trifluoromethyl)-1,2,4-oxadiazol-3-yl]thiophen-2-yl}methyl)pyridazin-3-amine], the IC50 at Human HDAC8 was not above 10000 nM; in experiment [1], more than 10000 nM; on Human HDAC7, not above 10000 nM; at Human HDAC9, not above 10000 nM.
`O=C(c1cnnc(N(Cc2ccc(-c3noc(C(F)(F)F)n3)s2)c2cnccn2)c1)N1C[C@H]2C[C@@H]1CO2` [Example FW, 5-[(1R,4R)-2-Oxa-5-azabicyclo[2.2.1]heptane-5-carbonyl]-N-(pyrazin-2-yl)-N-({5-[5-(trifluoromethyl)-1,2,4-oxadiazol-3-yl]thiophen-2-yl}methyl)pyridazin-3-amine]: the IC50 (on Human HDAC8; in experiment [1]; on Human HDAC7; on Human HDAC9) was not above 10000 nM in each case.
`O=C(c1cnnc(N(Cc2ccc(-c3noc(C(F)(F)F)n3)s2)c2cnccn2)c1)N1CCC(F)(F)CC1` [Example FY, 5-(4,4-Difluoropiperidine-1-carbonyl)-N-(pyrazin-2-yl)-N-({5-[5-(trifluoromethyl)-1,2,4-oxadiazol-3-yl]thiophen-2-yl}methyl)pyridazin-3-amine]: the IC50 at Human HDAC8 was not above 10000 nM; in experiment [1] it was more than 10000 nM; at Human HDAC7, not above 10000 nM; on Human HDAC9 it was not above 10000 nM.
As for `CNC(=O)c1cnnc(N(Cc2ccc(-c3noc(C(F)(F)F)n3)s2)c2cnccn2)c1` [Example DY, N-Methyl-6-[(pyrazin-2-yl)({5-[5-(trifluoromethyl)-1,2,4-oxadiazol-3-yl]thiophen-2-yl}methyl)amino]pyridazine-4-carboxamide], the IC50 on Human HDAC8 was not above 10000 nM; in experiment [1], more than 10000 nM; on Human HDAC7 it was not above 500 nM; at Human HDAC9, not above 10000 nM.
For `O=C(c1cnnc(N(Cc2ccc(-c3noc(C(F)(F)F)n3)s2)c2cnccn2)c1)N1CC(F)(F)C1` [Example FT, 5-(3,3-Difluoroazetidine-1-carbonyl)-N-(pyrazin-2-yl)-N-({5-[5-(trifluoromethyl)-1,2,4-oxadiazol-3-yl]thiophen-2-yl}methyl)pyridazin-3-amine], the IC50 on Human HDAC8 is not above 10000 nM; in experiment [1] it was more than 10000 nM; on Human HDAC7, not above 10000 nM; at Human HDAC9, not above 10000 nM.
`N#Cc1cnnc(N(Cc2ccc(-c3noc(C(F)(F)F)n3)s2)c2cnccn2)c1` [Example EE, 6-[(Pyrazin-2-yl)({5-[5-(trifluoromethyl)-1,2,4-oxadiazol-3-yl]thiophen-2-yl}methyl)amino]pyridazine-4-carbonitrile]: the concentration for half-maximal inhibition (IC50) on Human HDAC8 is not above 10000 nM; in experiment [1] it was more than 10000 nM; on Human HDAC7, not above 10000 nM; at Human HDAC9, not above 10000 nM.
`COc1cnc(N(Cc2ccc(-c3noc(C(F)(F)F)n3)s2)c2cnccn2)cn1` [Example BI, 5-Methoxy-N-(pyrazin-2-yl)-N-({5-[5-(trifluoromethyl)-1,2,4-oxadiazol-3-yl]thiophen-2-yl}methyl)pyrazin-2-amine]: the IC50 on Human HDAC8 is not above 10000 nM; in experiment [1], more than 10000 nM; on Human HDAC7 it was not above 500 nM; at Human HDAC9 it was not above 10000 nM.
On to `Nc1cnnc(N(Cc2ccc(-c3noc(C(F)(F)F)n3)s2)c2cnccn2)c1` [Example FL, N3-(Pyrazin-2-yl)-N3-({5-[5-(trifluoromethyl)-1,2,4-oxadiazol-3-yl]thiophen-2-yl}methyl)pyridazine-3,5-diamine], for which the half-inhibitory concentration (IC50) was not above 10000 nM on Human HDAC8, more than 10000 nM in experiment [1], not above 500 nM at Human HDAC7 and not above 1000 nM on Human HDAC9.
On to `COC1CN(C(=O)c2cnnc(N(Cc3ccc(-c4noc(C(F)(F)F)n4)s3)c3cnccn3)c2)C1` [Example DZ, 5-(3-Methoxyazetidine-1-carbonyl)-N-(pyrazin-2-yl)-N-({5-[5-(trifluoromethyl)-1,2,4-oxadiazol-3-yl]thiophen-2-yl}methyl)pyridazin-3-amine], for which the IC50 is not above 10000 nM on Human HDAC8, more than 10000 nM in experiment [1], not above 1000 nM on Human HDAC7 and not above 10000 nM on Human HDAC9.
Take `O=C(c1cnnc(N(Cc2ccc(-c3noc(C(F)(F)F)n3)s2)c2cnccn2)c1)N1CC2(COC2)C1` [Example FZ, 5-{2-Oxa-6-azaspiro[3.3]heptane-6-carbonyl}-N-(pyrazin-2-yl)-N-({5-[5-(trifluoromethyl)-1,2,4-oxadiazol-3-yl]thiophen-2-yl}methyl)pyridazin-3-amine]: the IC50 at Human HDAC8 was not above 10000 nM; in experiment [1] it was more than 10000 nM; on Human HDAC7 it was not above 1000 nM; on Human HDAC9, not above 10000 nM.
With `FC(F)(F)c1nc(-c2ccc(CN(c3cnccn3)c3cc(N4CCOCC4)cnn3)s2)no1` [Example FP, 5-(Morpholin-4-yl)-N-(pyrazin-2-yl)-N-({5-[5-(trifluoromethyl)-1,2,4-oxadiazol-3-yl]thiophen-2-yl}methyl)pyridazin-3-amine], the IC50 on Human HDAC8 was not above 10000 nM; in experiment [1], more than 10000 nM; at Human HDAC7, not above 10000 nM; at Human HDAC9, not above 10000 nM.
